Data reported in publication PMC8812461, “Synthesis of New 3-Arylcoumarins Bearing N-Benzyl Triazole Moiety: Dual Lipoxygenase and Butyrylcholinesterase Inhibitors With Anti-Amyloid Aggregation and Neuroprotective Properties Against Alzheimer’s Disease” (Frontiers in Chemistry, 2022).

Legend:
[1] = tested on: BV-2 cells; experiment: Hydrogen peroxide cell-based assay (extracellular H2O2, amyloid β-induced); design: species or system murine; conditions: 10.0 μM compound 3 h before amyloid β1-40 (5.0 μM), 24 h
Description: The BV-2 immortalized murine microglial cell line was cultured in a high-glucose Dulbecco’s modified Eagle medium (DMEM) without phenol red supplemented with 10% of FBS, %1 of L -glutamine, and 1% of penicillin–streptomycin solution. The cells were kept in a moistened atmosphere at 37°C. Quantitation of the extracellular H2O2 produced by the BV-2 cells was detected using the Oxiselect Sta-343 hydrogen peroxide assay according to the kit’s protocol. Briefly, the cells were seeded in a 384-well plate (1,000 cells/well) overnight in 50.0 μl/well of serum and phenol red free culture medium, then treated with 10.0 μM of the compounds for 3 h, prior to amyloid β1-40 treatment (5.0 μM) and incubated for 24 h. An amount of 25.0 μl of medium was collected and mixed with 250.0 μl aqueous working solution. The absorbance values at 595 nm of each well were measured using a BMG Labtech Omega FLUOstar microplate reader. BHT (butylated hydroxytoluene, Cell biolabs) was also tested as a reference antioxidant agent ([Datki et al., 2003]).

[2] = target: T1, BuChE (from equine serum) (Equus caballus, UniProt P81908); experiment: biochemical; format: biochemical; conditions: mean ± SEM of three experiments, read-out: eq BuChE IC50
T1 construct: BuChE from equine serum was employed for Ellman’s assay; purchased Merck or Aldrich; host or cells: equine serum
Description: (§1) AChE from electrophorus electricus and BuChE from equine serum was employed for Ellman’s assay. Each compound (5.0 mg) was dissolved in 1.0 ml of DMSO. […] Briefly, a mixture of phosphate buffer (2.0 ml, 0.1 M, pH = 8.0), 60.0 µl of DTNB solution, and 20.0 µl of AChE/BuChE was prepared, and 30.0 µl of the test compounds in different concentrations were then added to the mixture. Next, a solution of the substrate (acetylthiocholine iodide/butyrylthiocholine iodide, 20.0 µl) was added to the mixture after 10 min incubation at 25°C. All experiments were performed in triplicates, and the temperature of all solutions was controlled to be maintained at 25°C. […] The blank solution was used to validate the non-enzymatic hydrolysis of the substrate during the assessment. The blank solution was prepared by a mixture of 2.0 ml of buffer, 30.0 μl of DMSO, 60.0 μl of DTNB, and 20.0 μl of substrate. The rate of the enzymatic hydrolysis of the substrate was calculated, and % inhibition of the compounds was determined. The half maximal inhibitory concentration (IC50) values were graphically determined from inhibition curves (logarithm of the concentration of the tested compound versus percent of the inhibition).

[3] = target: T2, BuChE (Equus caballus, UniProt P81908); experiment: Kinetic study of BuChE inhibition (Lineweaver–Burk); format: biochemical; conditions: secondary plot; inhibitor 0, 10.0, 20.0, 40.0 µM; read-out: Inhibitory constant (Ki) for BuChE
T2 construct: BuChE from equine serum was employed for Ellman’s assay; purchased Merck or Aldrich; host or cells: equine serum
Description: Kinetics of the BuChE inhibition activity was studied for compound 8l at different inhibitor concentrations (0, 10.0, 20.0, and 40.0 µM) as mentioned in the ChE inhibition assay section. Different concentrations of the substrate (S) and butyrylthiocholine iodide (BuChI) were applied to obtain the initial velocity measurements, in each case. The reciprocal of the S (1/S) was plotted against the initial velocity (1/v) ([Rampa et al., 2000]). […] […]. Ellman’s method was utilized to assess anti-AChE/BuChE activity of the synthesized compounds ([Ellman et al., 1961]). AChE from electrophorus electricus and BuChE from equine serum was employed for Ellman’s assay. Each compound (5.0 mg) was dissolved in 1.0 ml of DMSO. […] Briefly, a mixture of phosphate buffer (2.0 ml, 0.1 M, pH = 8.0), 60.0 µl of DTNB solution, and 20.0 µl of AChE/BuChE was prepared, and 30.0 µl of the test compounds in different concentrations were then added to the mixture. […] The change in the absorbance wavelength of 412 nm was recorded for 1 min. […] The rate of the enzymatic hydrolysis of the substrate was calculated, and % inhibition of the compounds was determined. The half maximal inhibitory concentration (IC50) values were graphically determined from inhibition curves (logarithm of the concentration of the tested compound versus percent of the inhibition).

[4] = target: T3, Aβ1-42 in the presence of AChE (Homo sapiens, UniProt P05067); experiment: AChE-induced Aβ1-42 aggregation (ThT assay); format: biochemical; conditions: compound 100.0 μM, AChE 0.01 u/ml
T3 construct: was used to dissolve amyloid β1-40 (Sigma A1075); purchased Sigma (Aβ); Merck or Aldrich (AChE) A1075 (Aβ)

[5] = in vitro; format: cell-based; conditions: rat, PC12 cells, MTT, read-out: PC12 viability percent (cytotoxicity)
Description: The cytotoxic effect of the selected compounds (8l and 8n) on the PC12 cell line was evaluated by using the MTT-based colorimetric assay. First, the PC12 cell line was cultivated in DMEM culture medium, supplemented with fetal bovine serum (10%). […]. Thereafter, the culture medium of each well was replaced by 20 µl MTT solution (5.0 mg/ml) and incubated to form formazan crystals, followed by dissolving them in DMSO (100.0 µl) and recording the related absorbance at 570 nm using a Synergy 2 multimode plate reader (Biotek, Winooski, VT, United States). The viability percent was then calculated according to the control well, where no compound was added to the related well. The mentioned protocol was repeated in triplicates, and the mean ± SEM of the obtained results was reported.

[6] = target: T4, Aβ1-42 (Homo sapiens, UniProt P05067); experiment: Self-induced Aβ1-42 aggregation (ThT assay); format: biochemical; conditions: for Self-induced Aβ aggregation inhibition relative to donepezil: 100.0 μM, versus donepezil; for Inhibition of self-induced Aβ1-42 aggregation: Aβ1-42 10.0 μM, compound 100.0 μM, ThT
T4 construct: was used to dissolve amyloid β1-40 (Sigma A1075); purchased Sigma A1075

[7] = target: T5, AChE (from electrophorus electricus) (Electrophorus electricus, UniProt O42275); experiment: Cholinesterase inhibition assay (Ellman's method), AChE; format: biochemical; conditions: test concentration not given
T5 construct: purchased Merck or Aldrich
Description: as §1

[8] = target: T6, 15-LOX (soybean lipoxygenase) (Glycine max, UniProt P08170); experiment: Soybean 15-LOX inhibition assay; format: biochemical
T6 construct: purchased Merck or Aldrich
T6 sequence (P08170 1-839): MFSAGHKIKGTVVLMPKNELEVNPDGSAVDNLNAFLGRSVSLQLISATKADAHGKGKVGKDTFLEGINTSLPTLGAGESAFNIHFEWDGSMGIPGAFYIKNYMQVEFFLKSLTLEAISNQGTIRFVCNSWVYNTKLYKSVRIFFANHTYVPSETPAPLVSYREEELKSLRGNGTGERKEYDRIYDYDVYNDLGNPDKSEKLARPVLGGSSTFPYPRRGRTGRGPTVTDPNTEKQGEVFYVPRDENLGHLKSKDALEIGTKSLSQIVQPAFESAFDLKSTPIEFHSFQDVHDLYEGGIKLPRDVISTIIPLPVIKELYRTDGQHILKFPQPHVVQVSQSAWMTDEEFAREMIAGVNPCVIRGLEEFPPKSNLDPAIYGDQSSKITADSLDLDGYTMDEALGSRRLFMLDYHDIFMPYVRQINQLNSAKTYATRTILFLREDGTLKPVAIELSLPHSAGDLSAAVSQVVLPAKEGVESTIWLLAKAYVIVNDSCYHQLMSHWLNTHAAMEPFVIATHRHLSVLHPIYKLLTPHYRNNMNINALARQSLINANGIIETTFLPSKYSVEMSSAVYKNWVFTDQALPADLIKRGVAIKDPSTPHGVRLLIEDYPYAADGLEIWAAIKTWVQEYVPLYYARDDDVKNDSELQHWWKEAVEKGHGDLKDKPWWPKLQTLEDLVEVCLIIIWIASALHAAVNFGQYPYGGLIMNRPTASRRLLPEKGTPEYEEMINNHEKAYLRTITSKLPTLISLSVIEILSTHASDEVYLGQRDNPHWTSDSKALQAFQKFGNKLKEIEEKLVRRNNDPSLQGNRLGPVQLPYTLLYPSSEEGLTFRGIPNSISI
Description: A solution of the target compound was prepared in DMSO, and it was diluted with phosphate buffer (0.1 M, pH = 8.0).

T4 sequence (P05067 672-711): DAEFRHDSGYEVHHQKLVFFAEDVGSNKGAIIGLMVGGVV
T1 sequence (P81908 whole entry): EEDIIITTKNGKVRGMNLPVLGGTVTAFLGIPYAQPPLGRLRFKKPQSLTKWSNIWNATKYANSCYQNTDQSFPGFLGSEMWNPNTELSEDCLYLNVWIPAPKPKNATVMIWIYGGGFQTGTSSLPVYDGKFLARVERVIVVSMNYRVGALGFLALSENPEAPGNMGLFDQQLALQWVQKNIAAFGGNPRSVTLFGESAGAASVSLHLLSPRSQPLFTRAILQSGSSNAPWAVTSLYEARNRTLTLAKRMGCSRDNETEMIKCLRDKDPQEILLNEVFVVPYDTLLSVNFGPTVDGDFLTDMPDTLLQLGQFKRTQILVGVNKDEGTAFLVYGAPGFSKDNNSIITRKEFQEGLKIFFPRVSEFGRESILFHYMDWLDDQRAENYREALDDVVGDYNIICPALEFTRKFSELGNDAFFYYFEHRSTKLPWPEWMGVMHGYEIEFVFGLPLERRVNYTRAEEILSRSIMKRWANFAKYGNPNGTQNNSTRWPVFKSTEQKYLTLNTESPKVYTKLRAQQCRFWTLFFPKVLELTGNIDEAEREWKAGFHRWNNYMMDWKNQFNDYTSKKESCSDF
T3 sequence (P05067 672-711): as the sequence (P05067 672-711) above
T5 sequence (O42275 24-633): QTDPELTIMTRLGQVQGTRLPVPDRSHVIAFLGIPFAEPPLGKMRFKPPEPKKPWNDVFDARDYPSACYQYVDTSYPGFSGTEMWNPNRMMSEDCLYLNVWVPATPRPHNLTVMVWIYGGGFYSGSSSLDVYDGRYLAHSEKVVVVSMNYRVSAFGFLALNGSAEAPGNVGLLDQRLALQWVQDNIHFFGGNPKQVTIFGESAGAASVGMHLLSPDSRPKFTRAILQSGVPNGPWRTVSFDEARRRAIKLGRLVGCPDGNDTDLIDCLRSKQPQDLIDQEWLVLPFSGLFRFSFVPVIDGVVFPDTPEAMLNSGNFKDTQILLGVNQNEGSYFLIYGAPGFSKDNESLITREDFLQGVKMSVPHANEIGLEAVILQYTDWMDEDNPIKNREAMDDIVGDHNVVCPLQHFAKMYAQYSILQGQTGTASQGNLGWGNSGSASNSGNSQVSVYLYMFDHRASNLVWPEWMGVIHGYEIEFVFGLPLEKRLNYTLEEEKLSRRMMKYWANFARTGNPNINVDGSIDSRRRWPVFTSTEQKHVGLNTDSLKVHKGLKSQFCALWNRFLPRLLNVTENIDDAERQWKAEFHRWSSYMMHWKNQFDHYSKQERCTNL
T2 sequence (P81908 whole entry): as the sequence (P81908 whole entry) above

| SMILES | H2O2 level of BV-2 cells (% ± SEM of control) [1] | IC50 [2] [µM] | Ki [3] [µM] | inhibition at 100 µM [4] [%] | viability at 24 h, 50 µM [5] [%] | Self-induced Aβ aggregation inhibition relative to donepezil [6] [times] | Inhibition of self-induced Aβ1-42 aggregation [6] [%] | ee AChE %inhib. [7] [%] | IC50 [8] [µM] |
| --- | --- | --- | --- | --- | --- | --- | --- | --- | --- |
| COc1cccc(Cn2cc(COc3ccc(-c4cc5ccccc5oc4=O)cc3)nn2)c1 [8l, 3-(4-((1-(3-Methoxybenzyl)-1H-1,2,3-triazol-4-yl)methoxy)phenyl)-2H-chromen-2-one] | 97.6 ± 6.1 % of control | 19.5 ± 0.9 | 14.1 | 36.2 ± 6.1 | 96.5 ± 0.9 | 1.44 | 61.3 ± 4.8 | 16.5 | 39.1 ± 1.1 |
| COc1cccc2cc(-c3ccc(OCc4cn(Cc5ccccc5)nn4)cc3)c(=O)oc12 [8n, 3-(4-((1-Benzyl-1H-1,2,3-triazol-4-yl)methoxy)phenyl)-8-methoxy-2H-chromen-2-one] | 122.4 ± 8.3 % of control | 45.1 ± 1.3 |  | 25.1 ± 8.7 | 95.2 ± 1.1 | 1.79 | 76.2 ± 6.4 | 49.9 | 42.5 ± 1.7 |
| Cc1cc(C(C)(C)C)c(O)c(C(C)(C)C)c1 [BHT, butylated hydroxytoluene, reference compound] | 114.4 ± 8.5 % of control |  |  |  |  |  |  |  |  |
